The values below come from paper PMC9967051, “(S)-N-Benzyl-1-phenyl-3,4-dihydroisoqunoline-2(1H)-carboxamide Derivatives, Multi-Target Inhibitors of Monoamine Oxidase and Cholinesterase: Design, Synthesis, and Biological Activity” (Molecules, 2023).

One assay deals with MAO. As to the kind of experiment: MAO activity assay (total MAO). The class given is biochemical. The note with it: for Inhibition Rate for MAO: compounds concentration 100 µM. As to the method: The enzyme activity analysis was performed according to the procedure reported by Matsumoto et al. with slight modifications. All materials used in the enzymatic assays were purchased from Aladdin Reagent Chemicals. […] The concentrations of the synthesized compounds altered from 0.001 µM to 100 µM for the MAO-A and -B enzyme activity inhibition. […] The enzymatic reactions were caused by the addition of MAO-A (40 µg/mL) or MAO-B (20 µg/mL), and cultured at 37 °C for 30 min. The enzyme reactions were stopped through the addition of 2N NaOH for 75 µL. […] The inhibitory effect of enzyme activity was calculated as a percentage of product formation compared to the corresponding control with no inhibitor. A control was established to determine the interference of the tested compounds to the fluorescence assay, and the enzyme or substrate was added after the reaction stopped.

A further assay deals with BChE (Homo sapiens, UniProt P06276). As to the kind of experiment: biochemical. The following applies: compounds concentration 100 µM; read-out: Inhibition Rate BChE. On the procedure: Inhibition of AChE and BChE was measured through the spectrophotometric method developed by Ellman’s method with slight modifications. The analysis protocol contained 96-well plates (100 µL per well). Each well involved 20 µL of assay buffer solution, 20 µL of the test sample, and 40 µL of 0.2 U/mL of AChE or BChE. The mixture was incubated for 10 min at 25 °C followed by the addition of substrate (20 µL). For AChE inhibition assay, acetylthiocholine iodide (ATCI, 0.001 mol/L), while for BChE assay, butyrylthiocholine chloride (BTCCl, 0.001 mol/L) was added to it. The mixture was incubated at 37 °C for 15 min. Ellman reagent (5,5′-dithio-bis(2-nitrobenzoic acid), DTNB, 0.001 mol/L) was added. […] The blank analysis was performed. All the analyses were performed in triplicate. Inhibition rate of experimental sample or positive control group (%) = [(control group-blank background)-(experimental sample or positive control group -sample background)]/(control-blank background) × 100%.
Sequence of BChE (P06276 29-602): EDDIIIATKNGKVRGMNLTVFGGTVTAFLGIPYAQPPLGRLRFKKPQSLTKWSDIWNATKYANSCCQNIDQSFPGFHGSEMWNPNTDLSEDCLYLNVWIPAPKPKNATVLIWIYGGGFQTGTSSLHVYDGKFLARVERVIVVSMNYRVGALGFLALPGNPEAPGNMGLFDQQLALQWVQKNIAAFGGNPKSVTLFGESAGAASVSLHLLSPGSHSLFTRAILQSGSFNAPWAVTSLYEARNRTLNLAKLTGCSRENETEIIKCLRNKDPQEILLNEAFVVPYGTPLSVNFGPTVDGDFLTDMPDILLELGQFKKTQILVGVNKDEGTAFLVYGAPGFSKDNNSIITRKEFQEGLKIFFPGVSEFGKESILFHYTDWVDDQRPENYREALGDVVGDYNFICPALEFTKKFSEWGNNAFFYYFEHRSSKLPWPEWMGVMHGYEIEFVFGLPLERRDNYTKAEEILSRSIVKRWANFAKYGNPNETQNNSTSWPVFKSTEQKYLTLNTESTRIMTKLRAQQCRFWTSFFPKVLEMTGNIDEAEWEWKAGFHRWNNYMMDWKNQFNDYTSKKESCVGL

Consider `O=C(NCc1ccc(Cl)cc1Cl)N1CCc2ccccc2[C@@H]1c1ccccc1` [2x, (S)-N-(2,4-dichlorobenzyl)-1-phenyl-3,4-dihydroisoquinoline-2(1H)-carboxamide], for which, in the assay on MAO, the “Inhibition Rate for MAO” value was found to be 44.7%.
As to `O=C(NCc1cccc(C(F)(F)F)c1)N1CCc2ccccc2C1c1ccccc1` (stereo in doubt) [2l, (S)-N-(m-(trifluoromethyl)benzyl)-1-phenyl-3,4-dihydroisoquinoline-2(1H)-carbox-amide], the inhibition at 100 µM at BChE worked out at 49.1%.
In the case of `O=C(NCc1ccccc1Cl)N1CCc2ccccc2[C@@H]1c1ccccc1` [2e, (S)-N-(o-chlorobenzyl)-1-phenyl-3,4-dihydroisoquinoline-2(1H)-carboxamide], the “Inhibition Rate for MAO” value with MAO amounted to 41.4%.
On the same count and under the same terms, with `O=C(NCc1ccc(OC(F)(F)F)cc1)N1CCc2ccccc2C1c1ccccc1` (stereo in doubt) [2o, (S)-N-(p-(trifluoromethoxy)benzyl)-1-phenyl-3,4-dihydroisoquinoline-2(1H)-carbox-amide] the figure was 31.1%.
Consider `COc1ccc(CNC(=O)N2CCc3ccccc3[C@@H]2c2ccccc2)cc1` [2u, (S)-N-(p-methoxybenzyl)-1-phenyl-3,4-dihydroisoquinoline-2(1H)-carboxamide], for which the inhibition at 100 µM on BChE stood at 40.7%.
As for `O=C(NCc1ccccc1OC(F)(F)F)N1CCc2ccccc2C1c1ccccc1` (stereo in doubt) [2n, (S)-N-(o-(trifluoromethoxy)benzyl)-1-phenyl-3,4-dihydroisoquinoline-2(1H)-carbox-amide], the “Inhibition Rate for MAO” value with MAO was 33.0%.
As for `COc1ccc(CNC(=O)N2CCc3ccccc3[C@@H]2c2ccccc2)cc1OC` [2w, (S)-N-(3,4-dimethoxybenzyl)-1-phenyl-3,4-dihydroisoquinoline-2(1H)-carboxamide], the inhibition at 100 µM at BChE stood at 9.4%.
On to `O=C(NCc1ccc(C(F)(F)F)cc1)N1CCc2ccccc2C1c1ccccc1` (stereo in doubt) [2m, (S)-N-(p-(trifluoromethyl)benzyl)-1-phenyl-3,4-dihydroisoquinoline-2(1H)-carboxa-mide], for which the “Inhibition Rate for MAO” value in the assay on MAO turned out to be 35.8%.
As for `Cc1cccc(CNC(=O)N2CCc3ccccc3[C@@H]2c2ccccc2)c1` [2q, (S)-N-(m-methylbenzyl)-1-phenyl-3,4-dihydroisoquinoline-2(1H)-carboxamide], at BChE, the inhibition at 100 µM came to 8.7%.
Take `O=C(NCc1c(Cl)cccc1Cl)N1CCc2ccccc2[C@@H]1c1ccccc1` [2y, (S)-N-(2,6-dichlorobenzyl)-1-phenyl-3,4-dihydroisoquinoline-2(1H)-carboxamide]: the “Inhibition Rate for MAO” value in the assay on MAO worked out at 37.7%.
`O=C(NCc1ccc(Cl)cc1)N1CCc2ccccc2[C@@H]1c1ccccc1` [2g, (S)-N-(p-chlorobenzyl)-1-phenyl-3,4-dihydroisoquinoline-2(1H)-carboxamide]: the “Inhibition Rate for MAO” value in the assay on MAO turned out to be 21.2%.
For `O=C(NCc1ccccc1F)N1CCc2ccccc2[C@@H]1c1ccccc1` [2b, (S)-N-(o-fluorobenzyl)-1-phenyl-3,4-dihydroisoquinoline-2(1H)-carboxamide], the inhibition at 100 µM at BChE turned out to be 49%.
With `O=C(NCc1ccc(F)cc1F)N1CCc2ccccc2[C@@H]1c1ccccc1` [2aa, (S)-N-(2,4-difluorobenzyl)-1-phenyl-3,4-dihydroisoquinoline-2(1H)-carboxamide], the “Inhibition Rate for MAO” value in the assay with MAO is given as 32.1%.
For `COc1ccccc1CNC(=O)N1CCc2ccccc2[C@@H]1c1ccccc1` [2s, (S)-N-(o-methoxybenzyl)-1-phenyl-3,4-dihydroisoquinoline-2(1H)-carboxamid], the inhibition at 100 µM on BChE stood at 39.6%.
For `O=C(NCc1c(F)cccc1F)N1CCc2ccccc2[C@@H]1c1ccccc1` [2ab, (S)-N-(2,6-difluorobenzyl)-1-phenyl-3,4-dihydroisoquinoline-2(1H)-carboxamide], at BChE, the inhibition at 100 µM is 24.9%. Besides, in the assay on MAO, the “Inhibition Rate for MAO” value amounted to 33.0%.
On to `O=C(NCc1ccccc1C(F)(F)F)N1CCc2ccccc2C1c1ccccc1` (stereo in doubt) [2k, (S)-N-(o-(trifluoromethyl)benzyl)-1-phenyl-3,4-dihydroisoquinoline-2(1H)-carboxa-mide], for which, in the assay on MAO, the “Inhibition Rate for MAO” value turned out to be 33.0%.
Take `O=C(NCc1cccc(Cl)c1)N1CCc2ccccc2[C@@H]1c1ccccc1` [2f, (S)-N-(m-chlorobenzyl)-1-phenyl-3,4-dihydroisoquinoline-2(1H)-carboxamide]: the inhibition at 100 µM at BChE was found to be 3.4%.
`C#CCN[C@@H]1CCc2ccccc21` [Rasagiline, reference compound]: in the assay on MAO, the IC50 was 338 nM and the “Inhibition Rate for MAO” value is 91.75%.
For the compound `N#Cc1ccc(CNC(=O)N2CCc3ccccc3[C@@H]2c2ccccc2)cc1` [2ac, (S)-N-(p-cyanobenzyl)-1-phenyl-3,4-dihydroisoquinoline-2(1H)-carboxamide], the inhibition at 100 µM on BChE turned out to be 17.7%.
For `O=C(NCc1ccc(Cl)c(Cl)c1)N1CCc2ccccc2[C@@H]1c1ccccc1` [2z, (S)-N-(3,4-dichlorobenzyl)-1-phenyl-3,4-dihydroisoquinoline-2(1H)-carboxamide], at BChE, the inhibition at 100 µM was 12.1%. Further, the “Inhibition Rate for MAO” value in the assay on MAO is recorded as 7.40%.
